Measurements published in publication PMC10266688 (PLOS ONE, 2023).
Several values for one entry are separate records, joined by “and”; a condition that tells them apart may be missing. Identical values can stand only once.

How the values were obtained:
[1] = biological target: T1, 42kDa cellular protein (RPN13) (Homo sapiens, UniProt Q16186); experiment: Competition for RA190B binding in HeLa cell lysate; settings: HeLa lysate pre-treated with compound (5 μM) 45 min 4°C, then RA190B (20 μM)
T1 construct: endogenous in cells; host or cells: HeLa cell lysate
Experimental: NEM (1 mM) used as positive control.

[2] = test system: SKOV3 cells; experiment: MTT cytotoxicity assay, SKOV3 cells, 72 h; format: cell-based; settings: Homo sapiens, SK-OV-3; 72 h treatment
[3] = test system: HeLa cells; experiment: MTT cytotoxicity assay, HeLa cells, 72 h; format: cell-based; settings: Homo sapiens, 72 h treatment
[4] = test system: HMW polyUb proteins in ES2 cells; experiment: Western blot for polyubiquitinated proteins; settings: by 12 h
[5] = test system: proteasome (4UbFL reporter); experiment: 4UbFL reporter assay in ES2 cells; format: cell-based, human; settings: 4 h
Experimental: Sub-confluent cultures of cells were transfected with 4UbFL plasmid using TransIT 2020 reagent (Mirus Bio). Cells were seeded at 10,000 cells/well in 96-well plates 48 h post transfection, and incubated with compounds or vehicle (DMSO) at the doses and for the times indicated. Luciferase activity in cell lysate was determined with a luciferase assay kit (Promega) according to the manufacturer’s instructions. Bioluminescence was measured using a Glomax Multidetection system (Promega).
Two days later, luciferin was injected IP and the baseline enzymic activity of luciferase in the transduced muscle tissue was visualized as bioluminescence within this region of interest (ROI) using an IVIS imager. […]. After 4h, 24h and 48h the mice were again injected with luciferin, imaged and bioluminescence was quantified (Fig 5B). […] A) ES2 cells stably transduced with the 4UbFL reporter plasmid were treated with compounds at indicated doses for 4 h. The cells were then washed, lysed and their luminescence measured by a luminometer after addition of luciferin. B) Female CD1 mice electroporated with 4UbFL plasmid in their leg muscle. After 48 h, the mice were injected with luciferin, imaged by IVIS for their basal bioluminescence and randomized into two groups of five. […]. D) Up284 tissue distribution. […].

[6] = test system: TC1-OVA cells; experiment: Antigen presentation (H-2Kb/[…]) by TC1-OVA cells, flow cytometry; format: cell-based, mouse; settings: 0.25 μM, 12 h
[7] = test system: proteasome (4UbFL reporter); experiment: 4UbFL reporter in ES2-4UbFL tumor and leg muscle of nude mice; format: in vivo, mouse; settings: single IP dose Up284 20mg/kg or bortezomib 0.75 mg/kg, 4 h and 24 h
Experimental: A-C) Female nude mice were inoculated IP with ES2-luc cells, a human ovarian cancer line expressing luciferase. […] The IP tumor tissue and electroporated normal muscle tissue, being spatially distinct, were identified with separate regions of interest (ROI) after simultaneous imaging with IVIS.
Briefly mice were inoculated IP with ES2 cells stably expressing 4UbFL. After 48 h, the mice were injected with luciferin, imaged and then randomized into 3 groups (n = 5/group). Next, leg muscle of each mouse was electroporated with 4UbFL plasmid (considered as normal tissue). After 48 h (i.e. day 4) the mice were re-imaged and basal bioluminescence (0 h) was separately measured in the leg muscle and peritoneal ROIs.

[8] = Repeat dosing toxicity study: hematologic parameters; settings: female CD1 mice, Up284 20 mg/kg, Bortezomib 1 mg/kg
[9] = test system: TOV21G and ES2 cells; experiment: Annexin V apoptosis assay; settings: TOV21G and ES2, 12 h

T1 sequence (Q16186 2-407): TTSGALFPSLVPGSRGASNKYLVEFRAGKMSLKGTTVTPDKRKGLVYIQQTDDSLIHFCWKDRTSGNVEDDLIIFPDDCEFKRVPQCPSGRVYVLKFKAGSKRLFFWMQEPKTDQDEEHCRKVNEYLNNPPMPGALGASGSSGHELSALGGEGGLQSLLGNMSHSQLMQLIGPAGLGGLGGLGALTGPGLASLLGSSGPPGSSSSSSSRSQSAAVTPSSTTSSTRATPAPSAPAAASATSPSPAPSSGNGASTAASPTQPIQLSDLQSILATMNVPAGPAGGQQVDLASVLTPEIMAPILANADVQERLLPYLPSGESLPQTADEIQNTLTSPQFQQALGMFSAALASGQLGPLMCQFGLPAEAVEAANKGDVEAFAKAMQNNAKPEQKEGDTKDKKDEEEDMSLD

Row | competition for RA190B binding to the 42KDa cellular protein [1] | Compound | IC50 [2] [nM] | IC50 [3] [nM] | other results
1 | competed | C=CC(=O)N1CCC2(CC1)/C(=C\c1ccc(C#N)cc1)C(=O)/C2=C/c1ccc(C#N)cc1 [Up285] | 60 | 25 | –
2 | – | C=CC(=O)N1CCC2(C1)/C(=C\c1ccc(C#N)cc1)C(=O)/C2=C/c1ccc(C#N)cc1 (centres unmarked) [Up306] | 120 | 50 | –
3 | – | N#Cc1ccc(/C=C2/C(=O)/C(=C/c3ccc(C#N)cc3)C23CCN(C(=O)C(F)(F)F)CC3)cc1 [Up290] | 290 | 150 | –
4 | – | N#Cc1ccc(/C=C2/C(=O)/C(=C/c3ccc(C#N)cc3)C23CCN(C(=O)c2ccccc2)CC3)cc1 [Up288] | 390 | 280 | –
5 | competed | Cl.N[C@@H](Cc1ccccc1)C(=O)N1C/C(=C/c2ccc(Cl)c(Cl)c2)C(=O)/C(=C\c2ccc(Cl)c(Cl)c2)C1 [RA190, reference compound] | – | – | accumulation of HMW polyUb proteins [4]: profound accumulation; stabilization of 4UbFL reporter (fold increase in luminescence) [5]: dose-dependent stabilization; MHC class I antigen presentation (SIINFEKL on H-2Kb) [6]: enhance MHC class I presentation
6 | – | N#Cc1ccc(/C=C2/C(=O)/C(=C/c3ccc(C#N)cc3)C23CCNC3)cc1 [Up302] | 170 | 80 | –
7 | – | N.N.[Cl][Pt][Cl] [cisplatin, reference compound] | – | – | Annexin-V positive cells, single agent [9]: minimal impact
8 | – | CCCC(CCC)C(=O)N1CCC2(CC1)/C(=C\c1ccc(C#N)cc1)C(=O)/C2=C/c1ccc(C#N)cc1 [Up291] | 420 | 250 | –

Row | Compound | competition for RA190B binding to the 42KDa cellular protein [1] | IC50 [2] [nM] | IC50 [3] [nM] | other results
9 | CC(C)C[C@H](NC(=O)[C@H](Cc1ccccc1)NC(=O)c1cnccn1)B(O)O [bortezomib] | did not compete | – | – | 4UbFL bioluminescence signal in muscle tissue vs tumor [7]: similarly enhanced the bioluminescence signal; MHC class I antigen presentation (SIINFEKL on H-2Kb) [6]: did not; MPV ([8]; group Mean): 5.70 fL; MPV ([8]; individual mice): 5.70 fL and 5.60 fL and 5.80 fL
